Results published in PubChem BioAssay AID2041 (NMMLSC, 2009).

Target: Rab7 GTPase wildtype (dog), GST fusion
Test: inhibition of fluorescent GTP loading on Rab7 – biochemical, dog Rab7, bead multiplex flow cytometry, Bodipy-FL-GTP, pyrazoline series, SAR follow-up (AID 2041)
Conditions: Bead-based flow cytometry, Bodipy-FL-GTP binding; Ki calculated from EC50

| Structure (SMILES) | Ki |
| --- | --- |
| COc1ccc(C2CC(c3ccc(F)cc3)=NN2c2cccc(F)c2)cc1OC (stereo not drawn) | 1470 nM |
| COc1ccc(C2CC(c3ccc(F)cc3)=NN2c2cc(Cl)ccc2Cl)cc1 (stereo not drawn) | 730 nM |
| COc1ccccc1N1N=C(c2ccccc2)CC1c1ccccc1 (stereo not drawn) | 660 nM |

More lines, in order of falling Ki, values ahead:

| Ki | Structure (SMILES) |
| --- | --- |
| 430 nM | Clc1ccc(N2N=C(c3ccccc3)CC2c2ccccc2)cc1 (stereo not drawn) |
| 40 nM | COc1ccc(C2=NN(c3ccccc3)C(c3ccc(Cl)cc3)C2)cc1 (stereo not drawn) |
| 30 nM | O=S(=O)(c1ccc(N2N=C(c3ccccc3)CC2c2ccccc2)cc1)C(F)F (stereo not drawn) |
| 10 nM | COc1ccc(C2=NN(c3cccc(F)c3)C(c3ccc(OC)cc3)C2)cc1 (stereo not drawn) |
| 10 nM | COc1ccc(C2CC(c3cccc(Cl)c3)=NN2c2ccc(S(N)(=O)=O)cc2)cc1 (stereo not drawn) |
